Source: US20020164721A1, “Design of a polyepitopic construct for the induction of HLA-A2.1 restricted HIV 1 specific CTL responses using HHD mice” (priority 1999, published 2002)
Several values for one entry are separate records, joined by “and”; a condition that tells them apart may be missing. Identical values can stand only once. Entries after “also recorded” stand apart in the source; their conditions may differ. Like-named read-outs stand apart in the source and are kept apart here.

How the values were obtained:
[1] = test system: peptide-pulsed HHD-transfected RMAS cells; type: in vivo, HHD mice; settings: for classification as immunogen: by number of responder mice and strength of responses, peptide in IFA; for Responder/tested mice: 100 μg peptide s.c. in IFA
[2] = test system: peptide-pulsed HHD-transfected RMAS cells; type: in vivo, HHD mice; settings: with helper peptide; for Responder/tested mice: 50 μg CD8 + 140 μg HBV core T13L in IFA
[3] = test system: HHD-transfected RMA-S cells loaded with variant peptides; experiment: Cross-recognition of the main HIV 1 natural variants by induced CTL; type: in vivo, HHD mice; settings: CTL induced by the immunizing peptide; FIG. 4
Experimental: Therefore, we tested, in the four latter cases, whether the elicited CTL responses by the selected wild-type or tyrosine substituted immunizing peptides could cross-recognize natural variants of a significant representation among HIV 1 isolates.
Cytolytic activity was evaluated against peptide-loaded HHD-transfected RMA-S cells using Inf.m.G9L peptide-loaded cells as a negative control.

HLA-A2.1 molecules [4] = target: T1, HLA-A2.1 molecules (Homo sapiens, UniProt P04439, D140Y/D185E/D98H/E176V/E277Q/G131W/G231S/I119V/I121R/I166T/I218V/L300P/L318F/N151K/N90K/P208A/P217A/Q86G/Q94H/R138H/R169H/T345S); type: binding; settings: wild-type HIV 1 peptides; T2 cells, 37° C., brefeldine A
T1 construct: Using TAP-deficient, HLA-A2.1^+ T2 cells, we evaluated these parameters in an immunofluorescence assay; endogenous in cells; host or cells: T2 cells (TAP-deficient, HLA-A2.1+)

HLA-A2.1 molecules [5] = target: T1, HLA-A2.1 molecules; type: binding
[6] = test system: HHD-transfected RMA-S cells loaded with relevant peptide; experiment: CTL response of HHD mice injected s.c. with tumor epitopic peptide in IFA (51Cr-release assay); type: in vivo; settings: for hierarchy of CTL inducers: peptide alone in IFA, by number of responding mice and level of specific lysis; for R/T (responder versus tested mice): peptide s.c. in IFA, no helper, responder = at least 10% specific lysis
[7] = test system: HHD-transfected RMA-S cells loaded with relevant peptide; experiment: CTL response of A2A2Kb mice injected s.c. with tumor epitopic peptide in IFA (51Cr-release assay); type: in vivo; settings: responder = at least 10% specific lysis
[8] = test system: HHD-transfected RMA-S target cells loaded with relevant peptide; experiment: CTL response of HHD mice co-immunized in IFA with tumor peptide and HBVc.128 helper peptide; type: in vivo; settings: for R/T (responder versus tested mice): 50 μg CD8 peptide + 140 μg HBVc.128 helper in IFA
[9] = test system: HHD-transfected RMAS cells loaded with relevant peptide; experiment: CTL response of HHD mice immunized with peptide-loaded dendritic cells; type: in vivo; settings: for lysis in % (highest specific lysis): individual mice 1-6, usually 60/1 E/T; for lysis in % after a second in vitro restimulation: second restimulation with 10% TCGF, individual mice 1-6
[10] = test system: HHD-transfected RMAS cells loaded with relevant peptide; experiment: CTL response of HHD mice immunized with recombinant Ty-VLP; type: in vivo; settings: for lysis in % (highest specific lysis): recombinant Ty-VLP carrying the epitope, individual mice 1-6
[11] = test system: HHD-transfected RMAS cells loaded with relevant peptide; experiment: CTL response of HHD mice immunized with monoepitopic pCMV-B10 DNA; type: in vivo; settings: for lysis in % (highest specific lysis): pCMV-B10 DNA encoding the epitope, individual mice 1-6
[12] = test system: HHD-transfected RMAS cells loaded with relevant peptide; experiment: CTL response of HHD mice immunized with lipopeptides; type: in vivo; settings: lipopeptide of the epitope; individual mice 1-6
[13] = test system: peptide-loaded HHD-transfected RMA-S cells and HHD-transfected HeLa cells expressing the polyepitope; experiment: Melanoma polyepitopic pCMV-B10 DNA immunization of HHD mice, CTL assay; type: in vivo; settings: pCMV-B10 DNA with 10 melanoma epitopes, FIG. 1C and D
[14] = wild-type HIV 1 peptides, reference I9V, T2 cells

ALVEICTEM [A9M, HIV 1 POL (188-196) CD8 epitopic peptide]
classification as immunogen [1]: intermediate | Responder/tested mice ([1]; without helper peptide): 3/6 | Responder/tested mice [2]: 1/6 | Maximal specific lysis (%) ([2]; each responder mouse): 31% | cross-recognition of natural HIV 1 variants (in words) [3]: cross-lysed significantly all main natural variants

EMMTACQGV [E9V]
DC (half-life of stabilized peptide-HLA-A2.1 complexes, DC 50) (HLA-A2.1 molecules [4]): < 2 h | classification as immunogen [1]: inefficient | Responder/tested mice ([1]; without helper peptide): 0/6 | Responder/tested mice [2]: 0/6

KLTPLCVSL [K9L, HIV 1 ENV gp120 (120-128) CD8 epitopic peptide]
RA (relative affinity) (HLA-A2.1 molecules [5]; [14]): 1.35 | DC (half-life of stabilized peptide-HLA-A2.1 complexes, DC 50) (HLA-A2.1 molecules [4]): > 6 h | classification as immunogen [1]: intermediate | Responder/tested mice ([1]; without helper peptide): 3/6 | Responder/tested mice [2]: 4/6 | cross-recognition of natural HIV 1 variants (in words) [3]: lack of cross-recognition

LLDTGADDTV [L10V]
RA (relative affinity) (HLA-A2.1 molecules [5]; [14]): 10 | DC (half-life of stabilized peptide-HLA-A2.1 complexes, DC 50) (HLA-A2.1 molecules [4]): < 2 h | classification as immunogen [1]: intermediate | Responder/tested mice ([1]; without helper peptide): 1/6 | Maximum specific lysis (%) ([1]; without helper peptide, each responder mouse): 48% | Responder/tested mice [2]: 0/6

VLDVGDAYFSV [V11V]
RA (relative affinity) (HLA-A2.1 molecules [5]; [14]): 4.5 | DC (half-life of stabilized peptide-HLA-A2.1 complexes, DC 50) (HLA-A2.1 molecules [4]): 2 h | classification as immunogen [1]: intermediate | Responder/tested mice ([1]; without helper peptide): 3/6 | Responder/tested mice [2]: 2/6

VLPDVFIRC [NA17-A.nt38, NA17-A nt38-64 epitopic peptide]
hierarchy of CTL inducers [6]: intermediate | R/T (responder versus tested mice) [6]: 4/7 | R/T (responder versus tested mice) [7]: 0/6 | RA (relative affinity) (HLA-A2.1 molecules [5]): 1.52 | R/T (responder versus tested mice) [8]: 5/6 | CTL response with helper peptide (in words) ([8]; co-injected with HBVc.128 helper, compared with peptide alone): stronger responses in a larger proportion of mice | lysis in % (highest specific lysis) [9]: 0% (2×) and 3% (2×) and 5% and 6% | lysis in % after a second in vitro restimulation [9]: (6) %; also recorded: (5) %; also recorded: (24) %; also recorded: (9) %; also recorded: (7) %; also recorded: (2) % | lysis in % (highest specific lysis) [10]: 55% and 39% and 50% and 60% and 59% and 61% | CTL responses (in words) ([10]; recombinant Ty-VLP, all animals tested): strong CTL responses | lysis in % (highest specific lysis) [11]: 35% and 43% and 47% and 44% and 40% and 54% | CTL responses (in words) ([11]; recombinant pCMV-B10-DNA, all animals tested): strong CTL responses | lysis in % (highest specific lysis) [12]: 0% (2×) and 12% and 68% and 65% and 47% | CTL response against the epitope after melanoma polyepitope DNA immunization (in words) [13]: Strong responses

YLEPGPVTA [gp100.280]
hierarchy of CTL inducers [6]: weak | R/T (responder versus tested mice) [6]: 3/16 | R/T (responder versus tested mice) [7]: 0/6 | R/T (responder versus tested mice) [8]: 2/8 | lysis in % (highest specific lysis) [9]: 0% | lysis in % after a second in vitro restimulation [9]: (1) %; also recorded: (0) % | lysis in % (highest specific lysis) [10]: 8% (2×) and 3% and 1% and 4% and 18% | lysis in % (highest specific lysis) [11]: 0% (2×) and 8% and 36% and 21% and 9% | lysis in % (highest specific lysis) [12]: 0% (2×) and 8% (2×) and 40% and 21% | CTL response against the epitope after melanoma polyepitope DNA immunization (in words) [13]: did not elicit CTL responses; also recorded: No specific lysis
